Data set [1] in a line: Clearance in rat at 2 mg/kg, po or 1 mg/kg, iv. The following applies: in vivo. It counts as ADME, organism-based.
Data set [2] in a line: Half life in human liver microsomes. In kind it is ADME, Microsome. (In general: Liver microsomes are vesicles of endoplasmic reticulum, rich in cytochrome P450 enzymes.)
Data set [3] in a line: Cmax in rat at 2 mg/kg, po. It counts as ADME, organism-based. More on the design: dose 2 mg/kg, route oral. To be noted: in vivo.
Data set [4] can be described thus: Inhibition of ROCK by enzyme-coupled luciferase-kinase assay.
Data set [5] in a line: Selectivity ratio of IC50 for PKA to IC50 to ROCK.
Data set [6] has as its system Rattus norvegicus. The data set is described as follows: AUC in rat at 2 mg/kg, po. In kind it is ADME, organism-based, Plasma. On the set-up: dose 2 mg/kg, route oral. To be noted: in vivo.
The nature of data set [7]: Volume of distribution at steady state in rat at 2 mg/kg, po or 1 mg/kg, iv. To be noted: in vivo, read-out: Vdss. In kind it is ADME, organism-based.
Data set [8] in a line: Oral bioavailability in rat at 2 mg/kg. It counts as ADME, organism-based. To be noted: in vivo.
Data set [9] in a line: Inhibition of PKA.
A short description of data set [10]: Inhibition of ROCK by myosin light chain phosphorylation assay.
Data set [11] is described as follows: Half life in rat at 2 mg/kg, po or 1 mg/kg, iv. It counts as ADME, organism-based. To be noted: in vivo.
Data set [12] deals with Cytochrome P450 2D6 (Homo sapiens, UniProt P10635). The data set is described as follows: Inhibition of CYP2D6. It counts as ADME.
Chain of Cytochrome P450 2D6 (P10635 whole entry): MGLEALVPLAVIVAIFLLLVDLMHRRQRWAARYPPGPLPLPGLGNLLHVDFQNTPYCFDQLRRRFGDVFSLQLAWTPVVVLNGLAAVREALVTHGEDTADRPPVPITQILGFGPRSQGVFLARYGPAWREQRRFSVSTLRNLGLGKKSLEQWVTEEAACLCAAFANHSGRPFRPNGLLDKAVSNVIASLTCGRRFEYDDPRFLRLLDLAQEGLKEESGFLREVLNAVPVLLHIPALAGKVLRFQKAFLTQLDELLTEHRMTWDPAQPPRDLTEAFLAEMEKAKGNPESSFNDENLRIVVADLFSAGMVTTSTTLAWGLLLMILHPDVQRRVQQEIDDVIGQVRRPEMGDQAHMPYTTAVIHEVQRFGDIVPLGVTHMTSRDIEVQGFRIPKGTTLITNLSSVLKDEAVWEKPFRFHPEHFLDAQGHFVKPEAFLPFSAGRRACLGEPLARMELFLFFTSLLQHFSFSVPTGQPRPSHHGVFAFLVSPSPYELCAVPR
The target of data set [13] is Cytochrome P450 2C9 (Homo sapiens, UniProt P11712). The data set is described as follows: Inhibition of CYP2C9. It counts as ADME.
Chain of Cytochrome P450 2C9 (P11712 whole entry): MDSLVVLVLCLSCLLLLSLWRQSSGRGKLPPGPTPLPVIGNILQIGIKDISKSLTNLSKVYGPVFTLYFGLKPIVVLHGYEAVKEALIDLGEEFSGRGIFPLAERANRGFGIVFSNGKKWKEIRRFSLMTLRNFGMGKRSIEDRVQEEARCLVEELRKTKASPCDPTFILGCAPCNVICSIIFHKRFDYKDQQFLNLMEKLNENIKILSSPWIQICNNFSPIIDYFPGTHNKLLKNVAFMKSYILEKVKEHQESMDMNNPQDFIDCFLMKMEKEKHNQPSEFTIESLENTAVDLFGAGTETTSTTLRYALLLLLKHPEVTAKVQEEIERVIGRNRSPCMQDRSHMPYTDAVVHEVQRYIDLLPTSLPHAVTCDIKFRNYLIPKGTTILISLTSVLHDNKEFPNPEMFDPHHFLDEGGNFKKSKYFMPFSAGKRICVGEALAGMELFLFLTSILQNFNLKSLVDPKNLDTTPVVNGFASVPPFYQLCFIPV
Data set [14] concerns the target Cytochrome P450 3A4 (Homo sapiens, UniProt P08684). The data set is described as follows: Inhibition of CYP3A4. It counts as ADME.
The target in data set [15] is T1, Cytochrome P450 1A2 (Homo sapiens, UniProt P05177).
T1 sequence (P05177 whole entry): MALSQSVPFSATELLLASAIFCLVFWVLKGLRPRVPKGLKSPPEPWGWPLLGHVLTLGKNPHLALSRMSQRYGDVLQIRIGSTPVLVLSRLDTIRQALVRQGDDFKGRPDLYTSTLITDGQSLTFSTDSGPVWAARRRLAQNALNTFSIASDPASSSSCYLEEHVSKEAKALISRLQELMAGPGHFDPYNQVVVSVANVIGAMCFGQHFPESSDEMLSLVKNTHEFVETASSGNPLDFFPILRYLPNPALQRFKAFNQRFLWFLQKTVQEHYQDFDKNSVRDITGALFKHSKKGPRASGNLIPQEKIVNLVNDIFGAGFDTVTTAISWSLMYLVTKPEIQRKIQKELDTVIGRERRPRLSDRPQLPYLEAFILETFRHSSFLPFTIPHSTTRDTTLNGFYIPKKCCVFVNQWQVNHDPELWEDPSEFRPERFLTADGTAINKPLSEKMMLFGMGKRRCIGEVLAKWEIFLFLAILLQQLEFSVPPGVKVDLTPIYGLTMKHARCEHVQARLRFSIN
The data set is described as follows: Inhibition of CYP1A2. It counts as ADME.

SMILES strings stand for the structures. Where only a bound is given, the exact number is not on record here.

Chain of Cytochrome P450 3A4 (P08684 whole entry): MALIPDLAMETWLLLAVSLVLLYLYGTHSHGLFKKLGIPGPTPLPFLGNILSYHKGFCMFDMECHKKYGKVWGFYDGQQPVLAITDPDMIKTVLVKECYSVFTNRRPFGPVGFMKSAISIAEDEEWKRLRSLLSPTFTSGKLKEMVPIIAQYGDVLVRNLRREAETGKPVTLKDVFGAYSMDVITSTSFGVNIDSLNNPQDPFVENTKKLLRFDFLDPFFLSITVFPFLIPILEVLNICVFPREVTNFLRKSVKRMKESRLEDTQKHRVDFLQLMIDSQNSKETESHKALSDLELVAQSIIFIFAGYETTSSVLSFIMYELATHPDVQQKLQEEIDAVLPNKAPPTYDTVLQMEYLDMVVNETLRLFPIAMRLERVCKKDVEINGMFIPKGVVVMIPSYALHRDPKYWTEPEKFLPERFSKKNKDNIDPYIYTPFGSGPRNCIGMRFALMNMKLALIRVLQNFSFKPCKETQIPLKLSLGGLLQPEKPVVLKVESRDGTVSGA

As for `Nc1nccc(-c2ccc3nc(C4COc5ccc(C(=O)NCCc6cccnc6)cc5C4)[nH]c3c2)n1` (stereo unspecified), the clearance in [1] is 58 mL/min/kg. Further, the half-life is 0.025 h in data set [2] and 3.6 h in data set [11]. This compound displayed a maximum concentration (Cmax) in [3] of 5 nM. The IC50 in [4] came out at 0.25 nM; in data set [9], 442 nM; in data set [10], 250 nM. Besides, the Ratio IC50 in [5] was found to be 1770. Moreover, the AUC in data set [6] is 0.08 µM·h. In addition, the Vd in [7] came out at 5.9 L/kg. The compound further gave a bioavailability in data set [8] of 6%.

`c1ccc2c(c1)OCC(c1nc3ccc(-c4ccncc4)cc3n1CCN1CCOCC1)O2` (stereo unspecified): the result in [12], in [13], in [14] and in data set [15] was Active. Moreover, the IC50 in [4] stood at 130 nM; in data set [9], 6120 nM. In data set [5], the Ratio IC50 stood at 47.

On to `c1ccc2c(c1)OCC(c1nc3ccc(-c4ccncc4)cc3n1C1CCOCC1)O2` (stereo unspecified), for which the outcome in [12], in data set [13], in data set [14] and in data set [15] was Active. Further, the IC50 worked out at 27 nM in [4] and 509 nM in data set [9]. Moreover, the Ratio IC50 in data set [5] is 19.

Turning to `Cn1c(C2COc3ccccc3O2)nc2cc(-c3ccncc3)ccc21` (stereo unspecified), the result in data set [12], in data set [13], in data set [14] and in [15] was Active. Further, the IC50 stood at 1780 nM in data set [4] and 3130 nM in data set [9]. Also, in [5], the Ratio IC50 was found to be 2.

`COc1ccc2c(c1)CC(c1nc3ccc(-c4ccnc(N)n4)cc3[nH]1)CO2` (stereo unspecified): the IC50 in [4] is 1.7 nM; in [9] it was 485 nM; in data set [10] it was 85 nM. Also, in [5], the Ratio IC50 was found to be 285. Further, the AUC in data set [6] amounted to 1.9 µM·h.

For the compound `Cc1cc(-c2ccncc2)cc2[nH]c(C3COc4ccccc4O3)nc12` (stereo unspecified), the result in data set [12], in data set [13], in [14] and in [15] was Active. Moreover, the concentration for half-maximal inhibition (IC50) in data set [4] amounted to 240 nM; in data set [9] it was 1380 nM. Besides, in data set [5], the Ratio IC50 is 6.

Regarding `c1ccc2c(c1)OCC(c1nc3ccc(-c4ccncc4)cc3n1CC1CC1)O2` (stereo unspecified), the result in data set [12], in [13], in [14] and in data set [15] was Active. Besides, the figures for the IC50 in [4] and in data set [9] were 24 nM and 850 nM, respectively. Also, in data set [5], the Ratio IC50 worked out at 35.

`FC(F)(F)c1cc2nc(C3COc4ccccc4O3)[nH]c2cc1-c1ccncc1` (stereo unspecified): the result in data set [12], in data set [13], in data set [14] and in data set [15] was Active. The IC50 in [4] was determined as 2970 nM; in [9] it was 3080 nM. Also, the Ratio IC50 in data set [5] worked out at 1.

`CN(C)CCCNC(=O)c1ccc2c(c1)CC(c1nc3ccc(-c4ccnc(N)n4)cc3[nH]1)CO2` (stereo unspecified) registered a clearance in data set [1] of 27 mL/min/kg. Further, the half-life in data set [2] is 1.67 h; in [11] it was 3 h. In [3], this compound had a Cmax of 3 nM. Moreover, the half-maximal inhibitory concentration (IC50) in [4] came to 1.2 nM; in data set [9], 272 nM; in data set [10] it was 2700 nM. Moreover, the Ratio IC50 in data set [5] came out at 227. The same compound yielded an AUC in data set [6] of 0.01 µM·h. In addition, the Vd in data set [7] is 4.6 L/kg. The same compound yielded a bioavailability in data set [8] of less than 1%.

For `c1ccc(CCn2c(C3COc4ccccc4O3)nc3ccc(-c4ccncc4)cc32)cc1` (stereo unspecified), the outcome in data set [12], in data set [13], in data set [14] and in [15] was Active. In addition, the results for the 50% inhibitory concentration (IC50) in data set [4] and in [9] were 680 nM and 8810 nM, respectively. For the same compound, the Ratio IC50 in data set [5] amounted to 13.

In the case of `COc1ccc2c(c1)CC(c1nc3c(OCCN(C)C)cc(-c4ccncc4)cc3[nH]1)CO2` (stereo unspecified), the outcome in data set [12], in data set [13], in data set [14] and in data set [15] was Active. Further, the IC50 is 440 nM in data set [4] and greater than 20000 nM in data set [9]. Further, the Ratio IC50 in data set [5] was greater than 45.

Consider `c1ccc2c(c1)OCC(c1nc3ccc(-c4ccncc4)cc3[nH]1)O2` (stereo unspecified), for which the result in data set [12], in [13], in [14] and in [15] was Active. Also, the results for the IC50 in [4] and in data set [9] were 7.5 nM and 355 nM, respectively. Also, the Ratio IC50 in data set [5] turned out to be 47.

With `COCCn1c(C2COc3ccccc3O2)nc2ccc(-c3ccncc3)cc21` (stereo unspecified), the result in [12], in data set [13], in [14] and in data set [15] was Active. Besides, the figures for the IC50 in data set [4] and in data set [9] were 11 nM and 310 nM, respectively. For the same compound, the Ratio IC50 in [5] was found to be 28.

Take `Cn1c(C2COc3ccccc3O2)nc2ccc(-c3ccncc3)cc21` (stereo unspecified): the outcome in [12], in [13], in data set [14] and in data set [15] was Active. Besides, the IC50 in data set [4] came out at 15 nM; in data set [9], 1960 nM. In data set [5], the Ratio IC50 is 131.

For the compound `c1ccc(Cn2c(C3COc4ccccc4O3)nc3ccc(-c4ccncc4)cc32)cc1` (stereo unspecified), the result in data set [12], in data set [13], in data set [14] and in data set [15] was Active. Also, the results for the IC50 in data set [4] and in [9] were 190 nM and 1000 nM, respectively. For the same compound, in data set [5], the Ratio IC50 is 5.

For orientation: half-life means how long it takes for the measured level to halve. The low end stands for fast loss, the high end for slow loss. A word on the Cmax: it is the highest concentration seen after dosing. One may read the IC50 as the concentration needed to halve the response being measured. The low end stands for inhibition by little substance, the high end for a need for much substance. In general, AUC refers to the area under the concentration-time curve, a measure of exposure. Low readings indicate less exposure, high ones more exposure. For orientation: bioavailability means the share of a dose that reaches the circulation, judged against a reference dose that is usually intravenous.

Source of the values: ChEMBL document CHEMBL1155401, “The development of benzimidazoles as selective rho kinase inhibitors” (Bioorg Med Chem Lett, 2010).
